Source: ChEMBL document CHEMBL3132854, “Synthesis and anticancer activity evaluation of resveratrolchalcone conjugates” (2014)

Experiments:
Type in all cases: functional
DU-145 = assay: Cytotoxicity against human DU145 cells by sulforhodamine B assay
RXF 393 = assay: Cytotoxicity against human RXF393 cells by sulforhodamine B assay
[1] = Cytotoxicity against human OVCAR4 cells by sulforhodamine B assay
[2] = Cytotoxicity against human UACC257 cells by sulforhodamine B assay
M14 = assay: Cytotoxicity against human M14 cells by sulforhodamine B assay
LOX IMVI = assay: Cytotoxicity against human LOXIMVI cells by sulforhodamine B assay
SF-295 = assay: Cytotoxicity against human SF295 cells by sulforhodamine B assay
NCI-H226 = assay: Cytotoxicity against human NCI-H226 cells by sulforhodamine B assay
A549 = assay: Cytotoxicity against human A549/ATCC cells by sulforhodamine B assay
RPMI-8226 = assay: Cytotoxicity against human RPMI8226 cells by sulforhodamine B assay
[3] = read-out: LC50 (the source's name)

## COc1ccc(C(=O)/C=C/c2ccc(/C=C/c3cc(OC)c(OC)c(OC)c3)cc2)cc1
DU-145
  GI50: 10.2 µM
  TGI: > 100 µM
DU-145; [3]
  CC50: > 100 µM
RXF 393
  GI50: 8.01 µM
  TGI: 43.6 µM
RXF 393; [3]
  CC50: > 100 µM
[1]; OVCAR-4
  GI50: 6.31 µM
  TGI: 47.3 µM
[1]; OVCAR-4, read-out: LC50 (the source's name)
  CC50: > 100 µM
[2]; UACC-257
  GI50: 9 µM
  TGI: > 100 µM
[2]; UACC-257, read-out: LC50 (the source's name)
  CC50: > 100 µM
M14
  GI50: 9.61 µM
  TGI: > 100 µM
M14; [3]
  CC50: > 100 µM
LOX IMVI
  GI50: 3.76 µM
  TGI: 60.9 µM
LOX IMVI; [3]
  CC50: > 100 µM
SF-295
  GI50: 9.01 µM
  TGI: > 100 µM
SF-295; [3]
  CC50: > 100 µM
NCI-H226
  GI50: 3.57 µM
  TGI: 22.8 µM
NCI-H226; [3]
  CC50: > 100 µM
A549
  GI50: 4.67 µM
  TGI: 80.9 µM
A549; [3]
  CC50: > 100 µM
RPMI-8226
  GI50: 2.57 µM
  TGI: 8.54 µM
RPMI-8226; [3]
  CC50: > 100 µM
